Tests used:
eIF2a = test: Western blot of eIF2a S51 phosphorylation in NSC-34 cells; format: cell-based; conditions: 0.5 mM; 1 hr
Method: (FIG. 7A) miRNA expression level analysis in the motor neuron cell line NSC-34, treated with 6.25 nM Thapsigargin for 24 hrs, relative to cells treated with carrier alone (DMSO). Shown are average and s.d. of qPCR analyses of 3 independent experiments. Pre-miRNAs (light grey, normalized to Gapdh) and miRNAs (dark grey, normalized to Snord68). (FIG. 7B) mRNA levels encoding for proteins involved in the canonical stress response, normalized to the expression of beta-actin. (FIG. 7C) miRNA expression level analysis in mouse embryonic motor neurons, treated with 5 nM Thapsigargin for 72 hrs, relative to cells treated with carrier alone (DMSO). Shown are average and s.d. of qPCR analyses of three independent experiments. Pre-miRNAs (light grey, normalized to Gapdh and beta actin) and miRNAs (dark grey, normalized to Snord70). (FIG. 7D) mRNA markers of the canonical stress response, normalized to the expression of beta-actin. miRNA expression level analysis in NSC-34 cells, treated with Paraquat (PQ) (1 mM, 12 hrs, FIG. 7E) and sodium arsenite (0.5 mM, 60 min, FIG. 7F). pre-miRNA normalized to beta-actin mRNA (FIGS. 7E-F) and miRNAs to 5S (FIG. 7E) or to U6 and 5S (FIG. 7F). (FIGS. 7G-I) miRNA expression level analysis in mouse embryonic Wild-type fibroblasts (light grey) or phospho-mutant eIF2a S51A cells (black) treated with Thapsigargin (5 nM, 72 hrs) relative to carrier alone. […]

NSC-34 cells = test: Stress-induced change of pre-miRNA processing in NSC-34 cells (qPCR); format: cell-based; conditions: 1 hr, 0.5 mM
Method: (FIG. 7A) miRNA expression level analysis in the motor neuron cell line NSC-34, treated with 6.25 nM Thapsigargin for 24 hrs, relative to cells treated with carrier alone (DMSO). Shown are average and s.d. of qPCR analyses of 3 independent experiments. Pre-miRNAs (light grey, normalized to Gapdh) and miRNAs (dark grey, normalized to Snord68). (FIG. 7B) mRNA levels encoding for proteins involved in the canonical stress response, normalized to the expression of beta-actin. (FIG. 7C) miRNA expression level analysis in mouse embryonic motor neurons, treated with 5 nM Thapsigargin for 72 hrs, relative to cells treated with carrier alone (DMSO). Shown are average and s.d. of qPCR analyses of three independent experiments. Pre-miRNAs (light grey, normalized to Gapdh and beta actin) and miRNAs (dark grey, normalized to Snord70). (FIG. 7D) mRNA markers of the canonical stress response, normalized to the expression of beta-actin. miRNA expression level analysis in NSC-34 cells, treated with Paraquat (PQ) (1 mM, 12 hrs, FIG. 7E) and sodium arsenite (0.5 mM, 60 min, FIG. 7F). pre-miRNA normalized to beta-actin mRNA (FIGS. 7E-F) and miRNAs to 5S (FIG. 7E) or to U6 and 5S (FIG. 7F). (FIGS. 7G-I) miRNA expression level analysis in mouse embryonic Wild-type fibroblasts (light grey) or phospho-mutant eIF2a S51A cells (black) treated with Thapsigargin (5 nM, 72 hrs) relative to carrier alone. Pre-miRNA (FIG. 7G) and mature miRNA (FIG. 7H) levels normalized to Gapdh and Snord68, respectively. (FIG. 7I) ATF4, which is induced by phosphorylation of eIF2a, was not induced in phospho-mutant eIF2a S51A cells. Significance of p-values from ANOVA tests is indicated by *p<0.05; **p<0.01. (FIGS. 7J-K) Western-Blot analysis of lysates from untreated NSC-34 cells (control) or cells treated with sodium arsenite (0.5 mM, 60 min). Phospho-specific immunodetection of eIF2a S51 phosphorylation (peIF2a) and total eIF2a levels (FIG. 7J), Dicer and Ago2 levels (FIG. 7K). (FIG. 7L) miRNA expression level analysis in mouse embryonic fibroblasts treated with Puromycin (1 μg/ml, 24 hrs), relative to cells treated with carrier alone (water). Pre-miRNAs (light grey, normalized to Gapdh) and miRNAs (dark grey, normalized to Snord68).
RNA was extracted using Tri reagent (Molecular Research Center Inc.) or Qiazol with consecutive use of the miRNeasy Mini Kit (Qiagen). Pre-miRNA and miRNA reverse transcription was performed using miScript Kits No. I & II (Qiagen). Quantitative analysis of miRNA and pre-miRNA expression performed in more than 3 independent biological repeats and additionally in technical duplicates with StepOnePlus quantitative Real-Time PCR System and 2-sided ANOVA-test performed with DataAssist Software (Life technologies Inc.). Next-generation sequencing of mouse precursor miRNAs and mature miRNAs was performed on two independent experimental repeats, as described in Newman et al. [Newman et al. (2011) RNA 17(10): 1795-1803]. miRNAs were normalized to spiked-in controls and pre-miRNAs were normalized to Snord72 and Snord95.
Stress and cytoplasmic stress granules (SGs) emerge as major pathogenic mechanisms of ALS [Kim et al. (2014) Nat Genet 46(2): 152-160]. Stress pathways are thought to control miRNA activity [Etude and Hornstein, EMBO J. (2014) July 1; 33(13):1428-37], but the idea that cellular stress might broadly regulate miRNA biogenesis was not yet tested. This hypothesis was tested herein by measurement of the relative expression levels of mature miRNAs and their precursors, pre-miRNAs, which provides a proxy for the efficacy of Dicer complex activity. […] Two other chemicals were tested that drive oxidative stress, namely Paraquat (PQ, 12 hrs, 1 mM) and sodium arsenite (1 hr, 0.5 mM). […] Therefore, several different cellular stress pathways negatively regulate miRNA biogenesis.

## O=[As]O [sodium arsenite]
eIF2a
  phosphorylation of eIF2a: sufficient to induce the phosphorylation of eIF2a
NSC-34 cells
  mature miRNAs: down-regulation of mature miRNAs
  pre-miRNA levels: up-regulation of pre-miRNA levels
